What was measured:
bamyardgrass = assay: Test B flood test barnyardgrass; format: in vivo, Echinochloa crus-galli
In short: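 Read-out is a visual response score from 0 (no effect) to 10 (complete control), assigned by comparison with untreated controls. Treatment was applied at the 2-leaf stage, and plants stayed in the greenhouse for twelve to sixteen days before scoring.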

surinam grass = assay: Test B pre/postemergence surinam grass; format: in vivo, Brachiaria decumbens
In short: (§1)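 Herbicidal effect was estimated by eye on a ten-point control scale after plants spent twelve to sixteen days in a greenhouse following soil or foliar treatment. Foliar sprays targeted plants at one to four leaves; all doses were formulated in a non-phytotoxic solvent with surfactant.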

bedstraw = assay: Test B pre/postemergence bedstraw; format: in vivo, Galium aparine
In short: as §1

wild oat = assay: Test B pre/postemergence wild oat; format: in vivo, Avena fatua
In short: as §1

[1] = Rate 62 g/ha, headed Pre-emergence (flood test species), scale 0 to 10 (0 no effect, 10 complete control)
[2] = Rate 125 g/ha, Pre-emergence, flood test species, scale 0 to 10 where 0 is no effect and 10 is complete control
[3] = Rate 250 g/ha, Pre-emergence, flood-test species, scale 0 to 10, 0 is no effect, 10 is complete control
[4] = Rate 500 g/ha, Pre-emergence, flood test species, scale 0 to 10 (0 no effect, 10 complete control)
[5] = Preemergence, Rate 62 g/ha, scale of 0 to 10 where 0 is no effect and 10 is complete control
[6] = Preemergence, Rate 500 g/ha, scale of 0 to 10 where 0 is no effect and 10 is complete control
[7] = Rate 62 g/ha, Postemergence, scale of 0 to 10 where 0 is no effect and 10 is complete control
[8] = Rate 125 g/ha, Preemergence, scale of 0 to 10 where 0 is no effect and 10 is complete control
[9] = Rate 500 g/ha, Postemergence, scale 0 to 10, 0 no effect, 10 complete control
[10] = Preemergence, Rate 250 g/ha, scale of 0 to 10 where 0 is no effect and 10 is complete control
[11] = Rate 125 g/ha, Postemergence, scale 0 to 10
[12] = Rate 125 g/ha, Postemergence, scale of 0 to 10 where 0 is no effect and 10 is complete control
[13] = Rate 250 g/ha, Postemergence, scale of 0 to 10 where 0 is no effect and 10 is complete control
[14] = Rate 62 g/ha, Postemergence, scale 0 to 10 (0 no effect, 10 complete control)

Row | Compound | Barnyardgrass plant response rating (bamyardgrass; [1]) | Barnyardgrass plant response rating (bamyardgrass; [2]) | Barnyardgrass plant response rating (bamyardgrass; [3]) | Barnyardgrass plant response rating (bamyardgrass; [4]) | B. signalgrass plant response rating (surinam grass; [5]) | Plant response rating, B. signalgrass (surinam grass; [6]) | B. signalgrass plant response rating (surinam grass; [8]) | B. signalgrass plant response rating (surinam grass; [9]) | Bedstraw plant response rating (bedstraw; [5]) | Bedstraw plant response rating (bedstraw; [10]) | Plant response rating, Bedstraw (bedstraw; [6]) | Wild oats plant response rating (wild oat; [5]) | Wild oats plant response rating (wild oat; [10]) | B. signalgrass plant response rating (surinam grass; [10]) | B. signalgrass plant response rating (surinam grass; [12]) | Plant response rating, B. signalgrass (surinam grass; [13]) | Bedstraw plant response rating (bedstraw; [12]) | Plant response rating, Bedstraw (bedstraw; [13]) | Wild oats plant response rating (wild oat; [12]) | Plant response rating, Wild oats (wild oat; [13]) | other results
1 | CC(C)N(C(=O)n1oc(=O)n(-c2cccnc2)c1=O)c1ccccc1 [Compound 235] | 0 | 0 | 0 | 0 | 0 | 0 | 0 | 0 | 0 | 0 | 0 | 0 | 0 | – | – | – | – | – | – | – | B. signalgrass plant response rating (surinam grass; Preemergence, Rate 250 g/ha, scale 0 to 10, 0 is no effect, 10 is complete control): 0; B. signalgrass plant response rating (surinam grass; [7]): 0; B. signalgrass plant response rating (surinam grass; Rate 125 g/ha, Postemergence, scale 0 (no effect) to 10 (complete control)): 0; Plant response rating (0 to 10; 0 is no effect, 10 is complete control), B. signalgrass (surinam grass; Rate 250 g/ha, Postemergence): 0; Bedstraw plant response rating (bedstraw; [7]): 0; Bedstraw plant response rating (bedstraw; [11]): 0; Bedstraw plant response rating (bedstraw; [8]): 0; Plant response rating (0 to 10; 0 is no effect, 10 is complete control), Bedstraw (bedstraw; Rate 250 g/ha, Postemergence): 0; Bedstraw plant response rating (bedstraw; [9]): 0; Plant response rating, Wild oats (wild oat; [6]): 0; Wild oats plant response rating (wild oat; [7]): 0; Wild oats plant response rating (wild oat; [11]): 0; Wild oats plant response rating (wild oat; [8]): 0; Plant response rating (0 to 10; 0 is no effect, 10 is complete control), Wild oats (wild oat; Rate 250 g/ha, Postemergence): 0; Wild oats plant response rating (wild oat; [9]): 0
2 | CC(C)N(C(=O)n1oc(=O)n(-c2ccsc2)c1=O)c1ccc(F)cc1 [Compound 272] | 0 | 0 | 0 | 0 | 0 | 0 | 0 | 0 | 0 | 0 | 3 | 0 | 0 | 0 | 0 | 0 | 0 | 0 | 0 | 0 | B. signalgrass plant response rating (surinam grass; [7]): 0; Bedstraw plant response rating (bedstraw; [7]): 0; Bedstraw plant response rating (bedstraw; [8]): 0; Bedstraw plant response rating (bedstraw; [9]): 4; Plant response rating, Wild oats (wild oat; [6]): 2; Wild oats plant response rating (wild oat; [9]): 0
3 | CC(C)N(C(=O)n1oc(=O)n(C[Si](C)(C)C)c1=O)c1ccc(F)cc1 [Compound 294] | 0 | 3 | 9 | 9 | 0 | 9 | 7 | 0 | 0 | 0 | 0 | 0 | 3 | 7 | 0 | 0 | 6 | 8 | 0 | 0 | B. signalgrass plant response rating (surinam grass; [14]): 0; Bedstraw plant response rating (bedstraw; [14]): 3; Bedstraw plant response rating (bedstraw; [8]): 0; Bedstraw plant response rating (bedstraw; [9]): 9; Plant response rating, Wild oats (wild oat; [6]): 8; Wild oats plant response rating (wild oat; [14]): 0
4 | CCN(C(=O)n1oc(=O)n(Cc2ccco2)c1=O)C1CCCCC1 [Compound 312] | 0 | 0 | 0 | 0 | 0 | – | – | 0 | 0 | 0 | – | 0 | 0 | 0 | 0 | 0 | 0 | 0 | 0 | 0 | B. signalgrass plant response rating (0 to 10 scale, 0 is no effect, 10 is complete control) (surinam grass; Preemergence, Rate 125 g/ha): 0; B. signalgrass plant response rating (surinam grass; [6]): 0; B. signalgrass plant response rating (surinam grass; [14]): 0; Bedstraw plant response rating (0 to 10 scale) (bedstraw; Preemergence, Rate 125 g/ha): 0; Bedstraw plant response rating (bedstraw; [6]): 0; Bedstraw plant response rating (bedstraw; [14]): 0; Wild oats plant response rating (0 to 10 scale) (wild oat; Preemergence, Rate 125 g/ha): 0; Wild oats plant response rating (wild oat; [6]): 0; Wild oats plant response rating (wild oat; [14]): 0
5 | CC(C)N(C(=O)n1oc(=O)n(Cc2nnsc2Cl)c1=O)c1ccccc1 [Compound 321] | 0 | 0 | 0 | 0 | 0 | – | – | 0 | 0 | – | – | 0 | 2 | 3 | 0 | 0 | 4 | 8 | 0 | 0 | B. signalgrass plant response rating (0 to 10 scale, 0 is no effect, 10 is complete control) (surinam grass; Preemergence, Rate 125 g/ha): 0; B. signalgrass plant response rating (surinam grass; [6]): 5; B. signalgrass plant response rating (surinam grass; [14]): 0; Bedstraw plant response rating (bedstraw; [6]): 3; Bedstraw plant response rating (bedstraw; [14]): 0; Wild oats plant response rating (0 to 10 scale) (wild oat; Preemergence, Rate 125 g/ha): 0; Wild oats plant response rating (wild oat; [6]): 5; Wild oats plant response rating (wild oat; [14]): 0

— patent publication US6737383B1, “Herbicidal oxadiazolidines” (priority 1999, dated 2004)
